Patent US11873298B2, “Compounds and uses thereof” (JANSSEN PHARMACEUTICA NV, priority 2017, dated 2024)

Tests used:
SCD1 = molecular target: T1, SCD1 (Homo sapiens, UniProt O00767); test: Growth inhibition of humanized yeast strain expressing SCD1 as sole desaturase; assay type: cell-based; details: humanized yeast strain, 40 h
T1 construct: host or cells: S. cerevisiae ole1Δ strain (W303 pdr1Δ pdr3Δ background), plasmid pRS316 with TDH3 promoter and CYC1 terminator
T1 sequence (O00767 1-359): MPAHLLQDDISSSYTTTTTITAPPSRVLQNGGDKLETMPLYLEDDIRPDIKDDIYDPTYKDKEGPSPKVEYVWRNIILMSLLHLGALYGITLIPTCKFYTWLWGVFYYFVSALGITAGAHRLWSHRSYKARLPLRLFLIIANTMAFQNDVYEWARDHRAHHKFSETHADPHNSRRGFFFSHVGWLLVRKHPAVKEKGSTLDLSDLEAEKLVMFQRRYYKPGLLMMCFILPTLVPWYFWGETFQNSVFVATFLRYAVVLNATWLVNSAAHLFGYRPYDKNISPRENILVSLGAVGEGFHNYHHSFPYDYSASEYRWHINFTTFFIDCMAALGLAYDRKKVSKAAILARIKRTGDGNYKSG
Procedure, shortened: (§1)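 Yeast ole1Δ strain (W303 pdr1Δ pdr3Δ background) carrying plasmid-borne Ole1, SCD1 or SCD5 as sole desaturase was grown in uracil-lacking media, pre-cultured in raffinose for 6 h, then seeded in galactose medium with compound in DMSO. Growth was read as OD600 after 30° C. incubation: 24 h for Ole1, 40 h for SCD1/SCD5.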

SCD5 = molecular target: T2, SCD5 (Homo sapiens, UniProt Q86SK9); test: Growth inhibition of humanized yeast strain expressing SCD5 as sole desaturase; assay type: cell-based; details: humanized yeast strain, 40 h
T2 construct: host or cells: S. cerevisiae ole1Δ strain (W303 pdr1Δ pdr3Δ background), plasmid pRS316 with TDH3 promoter and CYC1 terminator
T2 sequence (Q86SK9 1-330): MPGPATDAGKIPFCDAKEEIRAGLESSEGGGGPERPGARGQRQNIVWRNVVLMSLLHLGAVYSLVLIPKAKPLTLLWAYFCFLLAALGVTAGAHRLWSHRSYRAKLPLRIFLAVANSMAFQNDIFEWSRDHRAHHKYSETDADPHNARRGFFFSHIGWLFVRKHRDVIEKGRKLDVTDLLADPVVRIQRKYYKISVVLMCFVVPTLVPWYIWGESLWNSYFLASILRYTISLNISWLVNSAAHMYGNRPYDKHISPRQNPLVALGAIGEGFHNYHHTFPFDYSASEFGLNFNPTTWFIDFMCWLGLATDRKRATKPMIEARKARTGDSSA
Procedure, shortened: as §1

| Structure (SMILES) | IC50 (SCD1) [µM] | IC50 (SCD5) [µM] |
| --- | --- | --- |
| CC(=O)N1CC(n2ncc3ccc(-c4nc(N5CCN(C(=O)OC(C)(C)C)CC5)no4)cc32)C1 [Compound 915] | > 45 | 10.1 |
| CC1(C(=O)N2CCN(c3nc(-c4ccc5cnn(C6COC6)c5c4)no3)CC2)CCCO1 (stereo not shown) [Compound 916] | 1.96 | 0.01 |
| COC(=O)N1CCC(c2noc(-c3ccc4cnc(C5COC5)n4c3)n2)CC1 [Compound 917] | > 45 | 0.1 |
| CC(C)(C)OC(=O)N1CCC(c2noc(-c3ccc4cnn(C5CNC5)c4c3)n2)CC1 [Compound 918] | > 45 | 0.8 |
| CC(C)n1ncc2cnc(-c3cc(C4CCN(C(=O)OC5(C)CC5)CC4)on3)cc21 [Compound 919] | > 45 | 0.18 |
| Cc1nn(C)c2cc(-c3nc(C4CCN(C(=O)C5CC5)CC4)no3)ccc12 [Compound 920] | 11.7 | 0.1 |
| COC(=O)N1CCC(c2noc(-c3ccc4c(C)nn(C)c4c3)n2)CC1 [Compound 921] | > 45 | 3.4 |
| Cc1nn(C)c2cc(-c3nc(C4CCN(S(=O)(=O)C5CC5)CC4)no3)ccc12 [Compound 922] | > 45 | 6.56 |
| Cc1nn(C)c2cc(-c3nc(C4CCN(C(=O)OC5CCC5)CC4)no3)ccc12 [Compound 923] | > 45 | > 45 |
| CC1(C(=O)N2CCN(c3nc(-c4ccc5cnn(C6COC6)c5c4)no3)CC2)CCOC1 (stereo not shown) [Compound 924] | > 45 | 4.09 |
| CC(C)(C)OC(=O)N1CC(n2ncc3ccc(-c4nc(N5CCn6c(Cl)cnc6C5)no4)cc32)C1 [Compound 925] | > 45 | > 45 |
| CC(C)(C)OC(=O)N1CC(c2noc(-c3ccc4cnn(C5COC5)c4c3)n2)C1 [Compound 926] | > 45 | > 45 |
| CC(C)C(=O)N1CCC(c2noc(-c3ccc4cnn(C5COC5)c4c3)n2)CC1 [Compound 927] | > 45 | 0.14 |
| COC(=O)N1CC(c2noc(-c3ccc4cnn(C5COC5)c4c3)n2)C1 [Compound 928] | > 45 | 0.01 |
| COCCOC(=O)N1CCC(c2noc(-c3ccc4cnn(C5COC5)c4c3)n2)CC1 [Compound 929] | > 45 | 4.42 |
| CCC(=O)N1CCN(c2nc(-c3ccc4cnn(C5CN(C(=O)CC)C5)c4c3)no2)CC1 [Compound 930] | > 45 | 0.2 |
| CC(C)(C)OC(=O)N1CCC(c2noc(-c3cc4c(cnn4C4COC4)cc3F)n2)CC1 [Compound 931] | > 45 | > 45 |
| CC(C)(C)OC(=O)N1CCN(c2noc(-c3ccc4cnn(C5CNC5)c4c3)n2)CC1 [Compound 932] | > 45 | 0.01 |
| CC(C)(C)OC(=O)N1CCC(c2noc(-c3ccc4cnn([C@H]5C[C@@H](O)C5)c4c3)n2)CC1 [Compound 933] | > 45 | 0.2 |
| Clc1cnc2n1CCN(c1noc(-c3ccc4cnn(C5CNC5)c4c3)n1)C2 [Compound 934] | > 45 | 0.01 |
| CC(=O)N1CC(n2ncc3ccc(-c4nc(N5CCn6c(Cl)cnc6C5)no4)cc32)C1 [Compound 935] | > 45 | > 45 |
| COC(=O)N1CCC(c2nc(-c3ccc4cn[nH]c4c3)no2)CC1 [Compound 936] | > 45 | 3.45 |
| CC(=O)N1CC(n2ncc3ccc(-c4nc(N5CCNCC5)no4)cc32)C1 [Compound 937] | > 45 | > 45 |
| Cc1nn(C)c2cc(-c3nc(C4CCN(C(=O)C(C)C)CC4)no3)ccc12 [Compound 938] | > 45 | > 45 |
| CCC(=O)N1CCC(c2noc(-c3ccc4c(C)nn(C)c4c3)n2)CC1 [Compound 939] | > 45 | 10.9 |
| CCC(=O)N1CCC(c2nc(-c3ccc4onc(C(C)C)c4c3)no2)CC1 [Compound 940] | > 45 | 31.2 |
| CC(C)c1noc2ccc(-c3noc(C4CCN(C(=O)C5CC5)CC4)n3)cc12 [Compound 941] | > 45 | 20.4 |
| CC(C)(C)OC(=O)N1CCC(c2nc(-c3ccc4cnc(C#N)n4c3)no2)CC1 [Compound 942] | > 45 | 9.16 |
| CC(C)(C)OC(=O)N1CCN(c2noc(-c3ccnc(N4CCOCC4)c3)n2)CC1 [Compound 943] | > 45 | > 45 |
